From ChEMBL document CHEMBL1150882, “Nitrogen-containing furanose and pyranose analogues from Hyacinthus orientalis” (J Nat Prod, 1998) come the findings set out here.

Bounds are passed on as bounds.

Assay [1] in a line: Inhibition of rice alpha-glucosidase. More on the design: species or system Oryza sativa.
A short description of assay [2]: Inhibition of Caldocellum saccharolyticum beta-glucosidase. More on the design: species or system Caldicellulosiruptor saccharolyticus.
A short description of assay [3]: Inhibition of bovine liver beta-galactosidase. More on the design: species or system Bos taurus.
A short description of assay [4]: Inhibition of almond beta-glucosidase. More on the design: species or system Prunus dulcis.
Assay [5] in a line: Inhibition of yeast alpha-glucosidase. More on the design: species or system Saccharomyces cerevisiae.
Assay [6] addresses Sucrase-isomaltase, intestinal (Rattus norvegicus) (UniProt P23739). The settings on record: Wistar, 1000 uM.
Description: Inhibition of Wistar rat intestinal sucrase at 1000 uM
Assay [7] deals with Sucrase-isomaltase, intestinal (Rattus norvegicus, UniProt P23739). The assay is described as follows: Inhibition of Wistar rat intestinal sucrase.
The target in assay [8] is Lactase/phlorizin hydrolase (Rattus norvegicus, UniProt Q02401). Kind of assay: Inhibition of Wistar rat intestinal lactase.
Assay [9] can be described thus: Inhibition of Wistar rat intestinal alpha alpha-trehalase.
Assay [10] has as its target Sucrase-isomaltase, intestinal (Rattus norvegicus) (UniProt P23739). The settings on record: Wistar, 1000 uM. This is another data set of the same source.
Description: Inhibition of Wistar rat intestinal isomaltase at 1000 uM
The target of assay [11] is T1, Uncharacterized protein (Sus scrofa) (UniProt I3LIR5).
T1 sequence (whole entry): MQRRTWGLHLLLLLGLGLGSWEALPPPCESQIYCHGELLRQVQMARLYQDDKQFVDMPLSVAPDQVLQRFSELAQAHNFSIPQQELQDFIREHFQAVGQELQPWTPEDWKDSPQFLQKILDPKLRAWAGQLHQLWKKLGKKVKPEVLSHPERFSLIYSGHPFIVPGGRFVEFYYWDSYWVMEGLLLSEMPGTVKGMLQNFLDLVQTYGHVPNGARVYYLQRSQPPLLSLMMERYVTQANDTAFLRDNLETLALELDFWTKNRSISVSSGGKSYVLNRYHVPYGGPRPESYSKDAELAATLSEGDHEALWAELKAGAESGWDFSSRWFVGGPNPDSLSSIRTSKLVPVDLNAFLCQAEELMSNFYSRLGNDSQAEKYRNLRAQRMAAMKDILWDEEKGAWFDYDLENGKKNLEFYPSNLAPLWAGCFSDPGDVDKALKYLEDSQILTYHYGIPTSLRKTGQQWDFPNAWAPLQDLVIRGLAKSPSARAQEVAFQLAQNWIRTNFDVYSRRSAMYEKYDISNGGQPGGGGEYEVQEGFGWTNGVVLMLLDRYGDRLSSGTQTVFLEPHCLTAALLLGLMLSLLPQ
The settings on record: 1000 uM.
Description: Inhibition of pig kidney alpha alpha-trehalase at 1000 uM

A further assay addresses T2, Uncharacterized protein (Sus scrofa, UniProt I3LIR5).
T2 sequence (I3LIR5 whole entry): T1 sequence (whole entry)
The assay is described as follows: Inhibition of pig kidney alpha alpha-trehalase.

For assay [12], the target named is Lysosomal alpha-glucosidase (Rattus norvegicus) (UniProt Q6P7A9). The settings on record: Wistar, 1000 uM.
Description: Inhibition of Wistar rat liver lysosomal alpha-glucosidase at 1000 uM
Assay [13] addresses T3, Tissue alpha-L-fucosidase (Bos taurus, UniProt Q2KIM0).
T3 sequence (Q2KIM0 whole entry): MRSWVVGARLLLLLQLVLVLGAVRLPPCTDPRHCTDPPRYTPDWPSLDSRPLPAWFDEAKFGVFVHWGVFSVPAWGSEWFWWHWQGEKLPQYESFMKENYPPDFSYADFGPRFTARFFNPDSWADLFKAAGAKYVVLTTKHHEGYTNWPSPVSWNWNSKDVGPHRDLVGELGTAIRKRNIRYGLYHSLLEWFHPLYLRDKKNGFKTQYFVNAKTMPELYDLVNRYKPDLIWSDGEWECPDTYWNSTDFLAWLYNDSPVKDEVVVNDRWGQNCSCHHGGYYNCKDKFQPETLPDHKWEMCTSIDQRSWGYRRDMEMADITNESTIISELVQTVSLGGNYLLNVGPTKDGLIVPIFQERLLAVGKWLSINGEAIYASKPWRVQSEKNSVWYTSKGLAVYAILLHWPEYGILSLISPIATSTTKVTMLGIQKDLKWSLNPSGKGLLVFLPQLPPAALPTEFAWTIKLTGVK
Kind of assay: Inhibition of bovine epididymis alpha-L-fucosidase at 1000 uM.

For a further assay, the system named is Oryza sativa. The settings on record: 1000 uM.
Assay [14] concerns the target Lysosomal alpha-glucosidase (Rattus norvegicus) (UniProt Q6P7A9). The settings on record: Wistar, 1000 uM. This is another data set of the same source.
Description: Inhibition of Wistar rat intestinal maltase at 1000 uM
Assay [15] deals with Caldicellulosiruptor saccharolyticus. The settings on record: 1000 uM.
Description: Inhibition of Caldocellum saccharolyticum beta-glucosidase at 1000 uM
The next assay is filed under the species Bos taurus. The settings on record: 1000 uM.
Assay [16] concerns the target Lactase/phlorizin hydrolase (Rattus norvegicus) (UniProt Q02401). The settings on record: Wistar, 1000 uM.
Description: Inhibition of Wistar rat intestinal lactase at 1000 uM
A further assay is filed under the species Rattus norvegicus. The settings on record: Wistar, 1000 uM.

Lysosomal alpha-glucosidase (Rattus norvegicus), sequence (Q6P7A9 whole entry): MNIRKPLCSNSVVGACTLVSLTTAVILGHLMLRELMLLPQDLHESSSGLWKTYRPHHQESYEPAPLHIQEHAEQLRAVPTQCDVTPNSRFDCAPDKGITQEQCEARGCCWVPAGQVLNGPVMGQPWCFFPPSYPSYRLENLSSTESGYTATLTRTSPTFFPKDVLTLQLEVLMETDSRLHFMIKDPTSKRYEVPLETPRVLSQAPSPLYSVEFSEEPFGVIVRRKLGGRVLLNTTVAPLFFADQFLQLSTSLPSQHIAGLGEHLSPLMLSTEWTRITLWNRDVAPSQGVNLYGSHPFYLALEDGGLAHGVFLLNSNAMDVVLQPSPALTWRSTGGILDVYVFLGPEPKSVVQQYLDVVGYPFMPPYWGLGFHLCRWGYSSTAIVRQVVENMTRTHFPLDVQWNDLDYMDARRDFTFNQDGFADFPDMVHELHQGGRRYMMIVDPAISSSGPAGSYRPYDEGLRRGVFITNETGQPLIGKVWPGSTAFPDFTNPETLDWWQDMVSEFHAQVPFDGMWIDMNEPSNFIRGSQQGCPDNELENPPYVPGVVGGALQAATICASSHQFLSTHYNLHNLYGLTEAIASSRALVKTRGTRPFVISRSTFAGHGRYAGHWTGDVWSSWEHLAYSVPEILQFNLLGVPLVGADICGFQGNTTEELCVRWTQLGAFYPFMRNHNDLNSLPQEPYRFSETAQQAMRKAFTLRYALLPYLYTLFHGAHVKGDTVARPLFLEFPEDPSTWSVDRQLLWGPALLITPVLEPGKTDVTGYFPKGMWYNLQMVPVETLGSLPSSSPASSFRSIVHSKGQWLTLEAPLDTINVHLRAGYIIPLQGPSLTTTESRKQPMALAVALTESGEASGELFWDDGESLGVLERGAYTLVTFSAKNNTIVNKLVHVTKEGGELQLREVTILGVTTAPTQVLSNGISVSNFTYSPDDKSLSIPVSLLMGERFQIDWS
Sucrase-isomaltase, intestinal (Rattus norvegicus), sequence (P23739 1-1013 limits assumed): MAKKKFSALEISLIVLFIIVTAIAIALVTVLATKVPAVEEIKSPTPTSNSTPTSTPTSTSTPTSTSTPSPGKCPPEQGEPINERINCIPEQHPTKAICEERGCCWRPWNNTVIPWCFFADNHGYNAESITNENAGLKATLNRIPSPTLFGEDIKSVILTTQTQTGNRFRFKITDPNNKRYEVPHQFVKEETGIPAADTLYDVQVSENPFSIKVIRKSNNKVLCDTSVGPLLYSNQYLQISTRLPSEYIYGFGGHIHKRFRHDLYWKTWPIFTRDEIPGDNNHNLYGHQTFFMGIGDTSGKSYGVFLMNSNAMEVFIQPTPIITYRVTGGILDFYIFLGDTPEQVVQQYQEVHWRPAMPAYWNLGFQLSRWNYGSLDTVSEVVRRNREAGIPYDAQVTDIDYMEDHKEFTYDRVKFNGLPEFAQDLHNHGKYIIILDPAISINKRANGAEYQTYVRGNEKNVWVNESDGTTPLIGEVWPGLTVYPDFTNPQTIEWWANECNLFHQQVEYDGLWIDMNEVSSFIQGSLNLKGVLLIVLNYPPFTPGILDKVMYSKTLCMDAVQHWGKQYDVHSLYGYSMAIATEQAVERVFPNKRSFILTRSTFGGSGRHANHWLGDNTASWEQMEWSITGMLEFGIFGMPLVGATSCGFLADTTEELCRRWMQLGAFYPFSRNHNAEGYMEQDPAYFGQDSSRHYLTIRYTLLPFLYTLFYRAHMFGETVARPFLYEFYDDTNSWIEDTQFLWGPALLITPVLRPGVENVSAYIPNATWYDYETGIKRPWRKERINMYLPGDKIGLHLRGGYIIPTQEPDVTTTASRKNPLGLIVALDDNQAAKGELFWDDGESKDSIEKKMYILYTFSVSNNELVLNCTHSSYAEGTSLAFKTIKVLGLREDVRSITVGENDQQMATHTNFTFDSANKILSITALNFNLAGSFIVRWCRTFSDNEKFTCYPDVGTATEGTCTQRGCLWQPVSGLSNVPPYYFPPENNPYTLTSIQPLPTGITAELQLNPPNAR
Sucrase-isomaltase, intestinal (Rattus norvegicus), sequence (P23739 1014-1841 limits assumed): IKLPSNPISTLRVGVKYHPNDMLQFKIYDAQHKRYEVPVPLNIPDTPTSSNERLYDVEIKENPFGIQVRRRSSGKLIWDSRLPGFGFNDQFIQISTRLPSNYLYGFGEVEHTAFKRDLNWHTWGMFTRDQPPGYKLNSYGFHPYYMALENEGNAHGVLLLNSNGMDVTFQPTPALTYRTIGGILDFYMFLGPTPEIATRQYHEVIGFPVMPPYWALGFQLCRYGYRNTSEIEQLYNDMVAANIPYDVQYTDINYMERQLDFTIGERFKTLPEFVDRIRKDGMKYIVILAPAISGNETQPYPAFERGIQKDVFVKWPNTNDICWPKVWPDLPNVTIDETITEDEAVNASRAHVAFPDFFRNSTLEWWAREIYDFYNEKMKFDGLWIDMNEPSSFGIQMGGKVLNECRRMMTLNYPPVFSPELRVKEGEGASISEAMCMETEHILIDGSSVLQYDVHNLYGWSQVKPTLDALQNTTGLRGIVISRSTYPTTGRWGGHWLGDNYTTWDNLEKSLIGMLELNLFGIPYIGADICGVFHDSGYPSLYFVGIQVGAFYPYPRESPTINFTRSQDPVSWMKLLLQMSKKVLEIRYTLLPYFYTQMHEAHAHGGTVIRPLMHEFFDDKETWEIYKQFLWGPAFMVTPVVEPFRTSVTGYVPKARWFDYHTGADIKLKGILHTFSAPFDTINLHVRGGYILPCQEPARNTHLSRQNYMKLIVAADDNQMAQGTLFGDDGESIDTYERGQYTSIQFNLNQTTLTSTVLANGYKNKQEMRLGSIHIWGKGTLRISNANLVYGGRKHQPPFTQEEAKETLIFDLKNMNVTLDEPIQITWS
Lactase/phlorizin hydrolase, sequence (Q02401 868-1928 limits assumed): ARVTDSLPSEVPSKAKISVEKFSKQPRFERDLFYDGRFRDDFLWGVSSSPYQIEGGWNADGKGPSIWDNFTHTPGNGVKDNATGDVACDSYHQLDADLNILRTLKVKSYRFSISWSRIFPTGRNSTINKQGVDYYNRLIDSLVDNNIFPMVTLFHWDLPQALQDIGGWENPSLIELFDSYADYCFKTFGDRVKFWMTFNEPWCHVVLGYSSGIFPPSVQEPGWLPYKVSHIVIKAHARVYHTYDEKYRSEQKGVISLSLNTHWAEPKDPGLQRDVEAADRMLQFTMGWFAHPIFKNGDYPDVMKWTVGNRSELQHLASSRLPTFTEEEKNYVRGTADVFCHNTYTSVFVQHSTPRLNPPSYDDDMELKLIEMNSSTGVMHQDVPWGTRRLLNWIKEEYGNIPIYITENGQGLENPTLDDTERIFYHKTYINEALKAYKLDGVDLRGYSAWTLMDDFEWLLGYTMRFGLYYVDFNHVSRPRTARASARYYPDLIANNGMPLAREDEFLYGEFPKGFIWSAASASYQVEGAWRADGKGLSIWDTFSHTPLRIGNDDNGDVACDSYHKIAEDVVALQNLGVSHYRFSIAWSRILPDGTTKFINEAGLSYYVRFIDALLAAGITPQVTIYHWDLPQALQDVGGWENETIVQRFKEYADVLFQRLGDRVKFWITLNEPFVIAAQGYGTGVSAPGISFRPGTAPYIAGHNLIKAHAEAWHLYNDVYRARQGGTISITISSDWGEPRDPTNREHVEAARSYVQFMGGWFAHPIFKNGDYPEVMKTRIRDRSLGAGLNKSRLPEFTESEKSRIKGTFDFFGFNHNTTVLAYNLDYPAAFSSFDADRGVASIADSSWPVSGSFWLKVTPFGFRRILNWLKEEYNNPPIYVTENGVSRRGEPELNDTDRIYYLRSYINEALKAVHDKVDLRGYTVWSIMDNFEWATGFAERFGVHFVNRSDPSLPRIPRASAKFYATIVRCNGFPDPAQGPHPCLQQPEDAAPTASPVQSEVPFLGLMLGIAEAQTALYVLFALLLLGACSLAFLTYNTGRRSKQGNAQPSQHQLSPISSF
Sucrase-isomaltase, intestinal, sequence (P23739 1-1013 limits assumed): as the sequence (P23739 1-1013 limits assumed) above
Sucrase-isomaltase, intestinal, sequence (P23739 1014-1841 limits assumed): as the sequence (P23739 1014-1841 limits assumed) above
Lactase/phlorizin hydrolase (Rattus norvegicus), sequence (Q02401 868-1928 limits assumed): as the sequence (Q02401 868-1928 limits assumed) above
Description for Bos taurus: Inhibition of bovine liver beta-galactosidase at 1000 uM
Description for Oryza sativa: Inhibition of rice alpha-glucosidase at 1000 uM

Regarding `OC[C@H]1N[C@H](CO)[C@@H](O)[C@@H]1O`, the IC50 in [1] was determined as 200 µM; in [2], 11 µM; in assay [3], 2.5 µM. In addition, the Ki in assay [4] is 10 µM; in [5] it was 7 µM. The same compound came in with an inhibition in [6] below 50%.
Take `OCC[C@H]1N[C@H](CO)[C@@H](O)[C@@H]1O`: the IC50 is 2.2 µM in assay [1]; 11 µM in assay [7]; 380 µM in [2]; 60 µM in [3]; 320 µM in assay [8]; 380 µM in assay [9]. The inhibition in [10] and in assay [11] was below 50% each time.
On to `OCC(O)[C@H]1N[C@H](CO)[C@@H](O)[C@@H]1O` (mixture of isomers), for which the IC50 was 130 µM in [1]; 300 µM in assay [7]; 3.8 µM in assay [2]; 4.4 µM in [3]; 4 µM in [8]; 5 µM against Uncharacterized protein. In addition, the IC50 in [9] amounted to 2 µM. Further, the Ki worked out at 1.5 µM in assay [4] and 54 µM in assay [5]. For the same compound, the inhibition in assay [10] and in assay [12] was below 50% in each case.
Consider `OCC[C@H]1N[C@@H](CO)[C@H](O)[C@H]1O`, for which the IC50 in assay [13] is 50 µM. The inhibition (in the assay with Oryza sativa; in assay [14]; in [10]; in assay [6]; in assay [12]; in assay [15]) was below 50% each time. The inhibition (in the assay filed under Bos taurus; in assay [16]; in assay [11]; in the assay filed under Rattus norvegicus) was below 50% in each case.

As usually defined, the IC50 is the concentration needed to halve the response being measured. The Ki is the equilibrium dissociation constant of an inhibitor or competing ligand from its target. One may read the inhibition as the drop in the measured response relative to a control, in per cent.
